Measured values reported in PubChem BioAssay (NCI).
Several values for one entry are separate records, joined by “and”; a condition that tells them apart may be missing. Identical values can stand only once.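 Step 1: Grow cells in 96-well plates. Step 2: Expose to compound for 48 hours at 5 concentrations. Step 3: Interpolate endpoints linearly; if unreached, use highest concentration. GI50: concentration for 50% inhibition of growth. TGI: total growth inhibition.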

Assays:
Experiment in all cases: NCI anticancer screen, dose series, 48 h
MDA-MB-231 breast = test system: MDA-MB-231 breast
MOLT-4 leukemia = test system: MOLT-4 leukemia
HS 578T breast = test system: HS 578T breast
CAKI-1 renal = test system: CAKI-1 renal
UACC-257 melanoma = test system: UACC-257 melanoma
SN12C renal = test system: SN12C renal
786-0 renal = test system: 786-0 renal
HCT-116 colon = test system: HCT-116 colon
SW-620 colon = test system: SW-620 colon
PC-3 prostate = test system: PC-3 prostate
SNB-19 CNS = test system: SNB-19 CNS

SMILES | TGI (MDA-MB-231 breast) | TGI (MOLT-4 leukemia) | TGI (HS 578T breast) [µM] | TGI (CAKI-1 renal) [µM] | TGI (UACC-257 melanoma) | TGI (SN12C renal) [µM] | TGI (786-0 renal) | TGI (HCT-116 colon) [µM] | TGI (SW-620 colon) [µM] | TGI (PC-3 prostate) [µM] | TGI (SNB-19 CNS) [µM] | GI50 (UACC-257 melanoma) [µM] | GI50 (SNB-19 CNS) [µM]
Cc1ccc(NC(=S)NNC(=O)c2cc(-c3ccccc3)nc3ccccc23)cc1C | 57.7 µM | 53.3 µM | > 100 | > 100 | 60.1 µM | 38.1 | 33.7 µM | 36.9 | > 100 | 42.9 | 93.2 | – | –
CO/N=C1/C(n2[nH]c(=O)n(-c3ccccc3)c2=O)C2C=CC1n1c(=O)n(-c3ccccc3)c(=O)n12 (centres undefined) | > 100 µM | > 100 µM | > 100 | > 100 | > 100 µM | > 100 | > 100 µM | > 100 | > 100 | > 100 | > 100 | – | –
O=[N+]([O-])c1cccc2nc3ccccc3c(NCCNCCO)c12 | 0.0668 µM and 0.0816 µM | 0.0891 µM and 0.0113 µM | 0.111 | 0.088 | 0.034 µM and 0.0325 µM | 0.173 | 0.0259 µM and 0.121 µM | 0.107 | – | 0.017 | – | 0.0126 | 0.0102
COc1ccc2c(-c3ccc(O)cc3)c(Oc3ccccc3)c(=O)oc2c1 | > 100 µM | > 100 µM | 99.1 | > 100 | > 100 µM | > 42.1 | > 52.1 µM | > 93.5 | > 100 | > 100 | > 53.7 | – | –
Cc1ccc(N2C(=O)CC(=O)N(NC(=O)C(C)Oc3ccccc3C)C2=S)cc1 (centres undefined) | > 100 µM | > 100 µM | > 100 | > 100 | > 100 µM | > 100 | > 100 µM | > 100 | > 100 | > 100 | > 100 | – | –
COC(=O)[C@H]1ON2O[C@@H](O[C@H]3CCCC[C@@H]3C(C)(C)c3ccccc3)C[C@@H]3CC[C@H]1[C@@]32C | – | > 100 µM | > 100 | > 100 | > 100 µM | > 100 | > 100 µM | > 100 | > 100 | – | – | – | –
COc1ccc(S(=O)Cc2cc(OC)ccc2OC)cc1 (centres undefined) | > 100 µM | > 100 µM | – | > 100 | > 100 µM | > 100 | > 100 µM | > 100 | > 100 | > 100 | > 100 | – | –
CCCCCC(/C=N/NC(N)=S)C(O)(C(F)(F)F)C(F)(F)F (centres undefined) | > 10 µM | > 10 µM | > 10 | > 10 | > 10 µM | > 10 | > 10 µM | > 10 | > 10 | > 10 | > 10 | – | –
C(/C=N/NC1=NCCN1)=N\NC1=NCCN1 | > 100 µM | > 100 µM | > 100 | > 100 | > 100 µM | – | > 100 µM | > 100 | > 100 | > 100 | > 100 | – | –
COc1cccc2c1C(=O)c1ccc3cc(CO)cc(O)c3c1C2=O | 2.58 µM | 4.22 µM | 9.59 | 7.18 | 0.412 µM | 2.86 | 4.24 µM | 0.787 | 1.2 | 1.17 | 5.85 | – | –
CSCCCNC(=O)c1csc([C@@H](CSC)NC(=O)CCNC(=O)[C@@H](NC(=O)OCC(Br)(Br)Br)C(C)O)n1 (some centres undefined) | > 100 µM | > 100 µM | > 100 | > 100 | > 100 µM | > 100 | > 100 µM | > 100 | > 100 | > 100 | > 100 | – | –
C/C(=N/NC(=S)N(Cc1ccccn1)Cc1ccccn1)c1cnccn1 | 21.7 µM | > 34.4 µM | 55.7 | 8.08 | 8.61 µM | 12.9 | 7.97 µM | 14.2 | 49.2 | 26 | 18.8 | – | –
c1ccc(-c2cc(-c3cc(-c4ccccc4)n[nH]3)[nH]n2)cc1 | > 100 µM | > 100 µM | > 100 | > 100 | > 100 µM | > 100 | > 100 µM | > 100 | – | > 100 | > 100 | – | –
COc1ccc(/C=N/n2c(C)n[nH]c2=O)cc1 | > 100 µM | > 100 µM | – | > 100 | > 100 µM | > 100 | > 100 µM | > 100 | > 100 | > 100 | > 100 | – | –
O=C(c1ccc(Cl)cc1)N(C(=S)N1CCN(c2ccccc2)CC1)c1ccccc1 | – | > 100 µM | – | > 100 | > 100 µM | > 100 | > 100 µM | > 100 | > 100 | – | > 100 | – | –
NNC(=O)CCCCCCCC(=O)O | > 100 µM | > 100 µM | > 100 | > 100 | > 100 µM | > 100 | > 100 µM | > 100 | > 100 | > 100 | > 100 | – | –
COc1cc(/C=C/C(=O)O)ccc1O | > 100 µM | > 100 µM | > 100 | > 100 | > 100 µM | > 100 | > 100 µM | > 100 | > 100 | > 100 | > 100 | – | –
COc1ccc(C2c3cc4c(cc3OC(N3CCOCC3)C2C)OCO4)c(OC)c1 (centres undefined) | 32.5 µM | 31.9 µM | 8.22 | 62.1 | 85.1 µM | 65.9 | 41.1 µM | 15.8 | 52.5 | > 100 | 28.9 | – | –
O=C1NC(N/N=C/C(O)C(O)C(O)C(O)CO)=N/C1=C\c1cccs1 (centres undefined) | > 100 µM | > 100 µM | > 100 | > 100 | > 100 µM | > 100 | > 100 µM | > 100 | > 100 | > 100 | > 100 | – | –
CCOC(=O)c1ccc(Nc2nc3ccc(C(F)(F)F)cc3nc2-c2ccccc2)cc1 | – | > 100 µM | > 100 | > 100 | > 100 µM | > 100 | > 100 µM | > 100 | > 100 | > 100 | > 100 | – | –
